# From US20230348376A1 (TEIJIN PHARMA LIMITED, priority 2020, published 2023)
# Target: T1, human VDR (Homo sapiens, UniProt P11473)
# T1 sequence (P11473 1-427): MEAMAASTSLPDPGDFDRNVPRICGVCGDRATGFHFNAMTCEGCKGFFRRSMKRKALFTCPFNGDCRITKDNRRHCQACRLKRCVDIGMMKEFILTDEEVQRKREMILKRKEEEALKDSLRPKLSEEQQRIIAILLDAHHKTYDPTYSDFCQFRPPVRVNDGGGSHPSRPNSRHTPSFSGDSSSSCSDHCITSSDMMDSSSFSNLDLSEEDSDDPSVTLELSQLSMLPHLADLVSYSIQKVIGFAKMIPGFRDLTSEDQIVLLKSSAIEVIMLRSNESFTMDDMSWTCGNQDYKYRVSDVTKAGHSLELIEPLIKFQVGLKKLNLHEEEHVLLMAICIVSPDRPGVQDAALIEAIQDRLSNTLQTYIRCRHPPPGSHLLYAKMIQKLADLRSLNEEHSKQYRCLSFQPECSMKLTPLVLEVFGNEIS
# T1 sequence (P19793 1-462 partner): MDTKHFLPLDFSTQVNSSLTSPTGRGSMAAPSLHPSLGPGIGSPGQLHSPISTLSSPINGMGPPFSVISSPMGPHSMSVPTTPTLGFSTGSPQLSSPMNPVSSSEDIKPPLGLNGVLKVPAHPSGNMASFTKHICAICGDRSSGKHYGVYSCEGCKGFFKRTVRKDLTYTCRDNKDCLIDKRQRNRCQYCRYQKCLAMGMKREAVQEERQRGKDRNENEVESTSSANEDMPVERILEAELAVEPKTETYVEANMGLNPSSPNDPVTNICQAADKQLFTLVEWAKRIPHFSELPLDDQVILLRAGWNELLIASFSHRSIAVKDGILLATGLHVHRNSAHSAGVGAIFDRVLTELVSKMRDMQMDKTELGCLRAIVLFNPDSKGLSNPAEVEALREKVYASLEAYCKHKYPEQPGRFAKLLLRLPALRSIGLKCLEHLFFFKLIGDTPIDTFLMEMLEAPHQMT
# Test: Evaluation of VDR transcription activity in human osteoblasts (HOS cells), luciferase reporter
# Details: Activity (EC50, VDR transcription activity), HOS cells transfected with human VDR, human RXRα and DR3 luciferase reporter; 21 hours
row,SMILES,EC50
1,"C=C1/C(=C\C=C2/CCC[C@]3(C)[C@@H]([C@H](C)CN4CC[C@@H](OC(F)(F)F)C4)CC[C@@H]23)C[C@@H](O)C[C@@H]1O [Compound B066, (1R,3S,Z)-5-(2-((1R,3aS,7aR,E)-7a-methyl-1-((S)-1-((R)-3-(trifluoromethoxy)pyrrolidin-1-yl)propan-2-yl)octahydro-4H-inden-4-ylidene)ethylidene)-4-methylenecyclohexane-1,3-diol]",10 to 100 nM
2,"COC1(C(F)(F)F)CN(C[C@@H](C)[C@H]2CC[C@H]3/C(=C/C=C4C[C@@H](O)C[C@H](O)C4)CCC[C@]23C)C1 [Compound A012, (1R,3R)-5-(2-((1R,3aS,7aR,E)-1-((S)-1-(3-methoxy-3-trifluoromethylazetidin-1-yl)propan-2-yl)-7a-methyloctahydro-4H-inden-4-ylidene)ethylidene)cyclohexane-1,3-diol]",10 to 100 nM
3,"C=C1/C(=C\C=C2/CCC[C@]3(C)[C@@H]([C@H](C)CN4CC[C@H](C(C)(F)F)C4)CC[C@@H]23)C[C@@H](O)C[C@@H]1O [Compound B028, (1R,3S,Z)-5-(2-((1R,3aS,7aR,E)-1-((S)-1-((S)-3-(1,1-difluoroethyl)pyrrolidin-1-yl)propan-2-yl)-7a-methyloctahydro-4H-inden-4-ylidene)ethylidene)-4-methylenecyclohexane-1,3-diol]",< 1 nM
4,"C=C1/C(=C\C=C2/CCC[C@]3(C)[C@@H]([C@H](C)CN4CC[C@H](OC(F)(F)F)C4)CC[C@@H]23)C[C@@H](O)C[C@@H]1O [Compound B065, (1R,3S,Z)-5-(2-((1R,3aS,7aR,E)-7a-methyl-1-((S)-1-((S)-3-(trifluoromethoxy)pyrrolidin-1-yl)propan-2-yl)octahydro-4H-inden-4-ylidene)ethylidene)-4-methylenecyclohexane-1,3-diol]",10 to 100 nM
5,"C=C1/C(=C\C=C2/CCC[C@]3(C)[C@@H]([C@H](C)CN4CCC(O)(C(F)(F)F)CC4)CC[C@@H]23)C[C@@H](O)[C@H](C)[C@@H]1O [Compound C003, (1R,2S,3S,Z)-5-(2-((1R,3aS,7aR,E)-1-((S)-1-(4-hydroxy-4-(trifluoromethyl)piperidin-1-yl)propan-2-yl)-7a-methyloctahydro-4H-inden-4-ylidene)ethylidene)-2-methyl-4-methylenecyclohexane-1,3-diol]",10 to 100 nM
6,"C=C1[C@H](O)CC(=C/C=C2\CCC[C@]3(C)[C@@H]([C@H](C)CN4CC[C@@H](C(C)(F)F)C4)CC[C@@H]23)C[C@H]1O [Compound B035, (1R,3R)-5-(2-((1R,3aS,7aR,E)-1-((S)-1-((R)-3-(1,1-difluoroethyl)pyrrolidin-1-yl)propan-2-yl)-7a-methyloctahydro-4H-inden-4-ylidene)ethylidene)-2-methylenecyclohexane-1,3-diol]",1 to 10 nM
7,"C[C@H](CN1CC[C@H](F)C1)[C@H]1CC[C@H]2/C(=C/C=C3C[C@@H](O)C[C@H](O)C3)CCC[C@]12C [Compound B012, (1R,3R)-5-(2-((1R,3aS,7aR,E)-1-((S)-1-((S)-3-fluoropyrrolidin-1-yl)propan-2-yl)-7a-methyloctahydro-4H-inden-4-ylidene)ethylidene)cyclohexane-1,3-diol]",100 to 1000 nM
8,"C[C@@H](CN1CC[C@H](C(F)F)C1)[C@H]1CC[C@H]2/C(=C/C=C3CC(O)C[C@H](O)C3)CCC[C@]12C (stereo in doubt) [Compound B099, (1R,3S)-5-(2-((1R,3aS,7aR,E)-1-((R)-1-((S)-3-(difluoromethyl)pyrrolidin-1-yl)propan-2-yl)-7a-methyloctahydro-4H-inden-4-ylidene)ethylidene)cyclohexane-1,3-diol]",10 to 100 nM
9,"C=C1[C@H](O)CC(=C/C=C2\CCC[C@]3(C)[C@@H]([C@H](C)CCN4CC[C@H](C(C)(F)F)C4)CC[C@@H]23)C[C@H]1O [Compound B091, (1R,3R)-5-(2-((1R,3aS,7aR,E)-1-((R)-4-((S)-3-(1,1-difluoroethyl)pyrrolidin-1-yl)butan-2-yl)-7a-methyloctahydro-4H-inden-4-ylidene)ethylidene)-2-methylenecyclohexane-1,3-diol]",1 to 10 nM
10,"C=C1[C@H](O)CC(=C/C=C2\CCC[C@]3(C)[C@@H]([C@H](C)CCN4CC[C@H](CC(F)F)C4)CC[C@@H]23)C[C@H]1O [Compound B090, (1R,3R)-5-(2-((1R,3aS,7aR,E)-1-((R)-4-((R)-3-(2,2-difluoroethyl)pyrrolidin-1-yl)butan-2-yl)-7a-methyloctahydro-4H-inden-4-ylidene)ethylidene)-2-methylenecyclohexane-1,3-diol]",1 to 10 nM
11,"C[C@@H](CN1CC[C@H](C(C)(F)F)C1)[C@H]1CC[C@H]2/C(=C/C=C3CC(O)C[C@H](O)C3)CCC[C@]12C (stereo in doubt) [Compound B101, (1R,3S)-5-(2-((1R,3aS,7aR,E)-1-((R)-1-((S)-3-(1,1-difluoroethyl)pyrrolidin-1-yl)propan-2-yl)-7a-methyloctahydro-4H-inden-4-ylidene)ethylidene)cyclohexane-1,3-diol]",10 to 100 nM

# Next, values leading:
row,EC50,SMILES
1,10 to 100 nM,"C[C@@H](CN1CCC(C(F)F)CC1)[C@H]1CC[C@H]2/C(=C/C=C3C[C@@H](O)C[C@H](O)C3)CCC[C@]12C [Compound C018, (1R,3R)-5-(2-((1R,3aS,7aR,E)-1-((R)-1-(4-(difluoromethyl)piperidin-1-yl)propan-2-yl)-7a-methyloctahydro-4H-inden-4-ylidene)ethylidene)cyclohexane-1,3-diol]"
2,10 to 100 nM,"C=C1/C(=C\C=C2/CCC[C@]3(C)[C@@H]([C@H](C)CCN4CCO[C@H](C(F)F)C4)CC[C@@H]23)C[C@@H](O)C[C@@H]1O [Compound D035, (1R,3S,Z)-5-(2-((1R,3aS,7aR,E)-1-((R)-4-((S)-2-(difluoromethyl)morpholino)butan-2-yl)-7a-methyloctahydro-4H-inden-4-ylidene)ethylidene)-4-methyloctahydro-1,3-diol]"
3,10 to 100 nM,"C=C1/C(=C\C=C2/CCC[C@]3(C)[C@@H]([C@@H](C)CN4CCC(C(F)F)CC4)CC[C@@H]23)C[C@@H](O)C[C@@H]1O [Compound C017, (1R,3S,Z)-5-(2-((1R,3aS,7aR,E)-1-((R)-1-(4-(difluoromethyl)piperidin-1-yl)propan-2-yl)-7a-methyloctahydro-4H-inden-4-ylidene)ethylidene)-4-methylenecyclohexane-1,3-diol]"
4,10 to 100 nM,"C=C1[C@H](O)CC(=C/C=C2\CCC[C@]3(C)[C@@H]([C@H](C)CN4CCC(O)(C(F)(F)F)CC4)CC[C@@H]23)C[C@H]1O [Compound C004, (1R,3R)-5-(2-((1R,3aS,7aR,E)-1-((S)-1-(4-hydroxy-4-(trifluoromethyl)piperidin-1-yl)propan-2-yl)-7a-methyloctahydro-4H-inden-4-ylidene)ethylidene)-2-methylenecyclohexane-1,3-diol]"
5,100 to 1000 nM,"C=C1/C(=C\C=C2/CCC[C@]3(C)[C@@H]([C@H](C)CN4CCC(C(F)F)CC4)CC[C@@H]23)C[C@@H](O)[C@H](C)[C@@H]1O [Compound C016, (1R,2S,3S,Z)-5-(2-((1R,3aS,7aR,E)-1-((S)-1-(4-(difluoromethyl)piperidin-1-yl)propan-2-yl)-7a-methyloctahydro-4H-inden-4-ylidene)ethylidene)-2-methyl-4-methylenecyclohexane-1,3-diol]"
6,1 to 10 nM,"C=C1[C@H](O)CC(=C/C=C2\CCC[C@]3(C)[C@@H]([C@H](C)CCN4C[C@@H](C)O[C@@H](C)C4)CC[C@@H]23)C[C@H]1O [Compound D028, (1R,3R)-5-(2-((1R,3aS,7aR,E)-1-((R)-4-((2S,6R)-2,6-dimethylmorpholino)butan-2-yl)-7a-methyloctahydro-4H-inden-4-ylidene)ethylidene)-2-methylenecyclohexane-1,3-diol]"
7,10 to 100 nM,"C=C1/C(=C\C=C2/CCC[C@]3(C)[C@@H]([C@H](C)CCN4CCOCC4)CC[C@@H]23)C[C@@H](O)C[C@@H]1O [Compound D022, (1R,3S,Z)-5-(2-((1R,3aS,7aR,E)-7a-methyl-1-((R)-4-morpholinobutan-2-yl)octahydro-4H-inden-4-ylidene)ethylidene)-4-methylenecyclohexane-1,3-diol]"
8,1 to 10 nM,"C=C1[C@H](O)CC(=C/C=C2\CCC[C@]3(C)[C@@H]([C@@H](C)CN4CCC(C(F)(F)F)CC4)CC[C@@H]23)C[C@H]1O [Compound C060, (1R,3R)-5-(2-((1R,3aS,7aR,E)-7a-methyl-1-((R)-1-(4-(trifluoromethyl)piperidin-1-yl)propan-2-yl)octahydro-4H-inden-4-ylidene)ethylidene)-2-methylenecyclohexane-1,3-diol]"
9,10 to 100 nM,C=C1/C(=C\C=C2/CCC[C@]3(C)[C@@H]([C@@H](C)CN4CCC(F)CC4)CC[C@@H]23)C[C@@H](O)C[C@@H]1O [Compound C058]
